ChEMBL document CHEMBL1150065, “Isolation of picropolygamain from the resin of Bursera simaruba” (J Nat Prod, 1992)

How the values were obtained:
HT-29 = assay: Cytotoxicity against human HT-29 cells; assay type: functional
Artemia = assay: Toxicity in brine shrimp; assay type: organism-based
A549 = assay: Cytotoxicity against human A549 cells; assay type: functional
MCF7 = assay: Cytotoxicity against human MCF7 cells; assay type: functional

SMILES	EC50 (HT-29; Homo sapiens, HT-29, read-out: ED50 (the source's name)) [µg/mL]	IC50 (Artemia) [ppm]	EC50 (A549; Homo sapiens, A549, read-out: ED50 (the source's name)) [µg/mL]	EC50 (MCF7; Homo sapiens, MCF7, read-out: ED50 (the source's name)) [µg/mL]	ED50 (HT-29) [×10⁻⁴ ug/ml]	ED50 (A549) [×10⁻⁴ ug/ml]	ED50 (MCF7) [×10⁻⁴ ug/ml]
O=C1OC[C@@H]2Cc3cc4c(cc3[C@@H](c3ccc5c(c3)OCO5)[C@H]12)OCO4 [PICROPOLYGAMAIN]	< 0.01	52.2	< 0.01	< 0.01	–	–	–
COc1cccc2c1C(=O)c1c(O)c3c(c(O)c1C2=O)C[C@@](O)(C(=O)CO)C[C@@H]3O[C@H]1C[C@H](N)[C@H](O)[C@H](C)O1 [DOXORUBICIN]	–	–	–	–	1.12	4.09	1.05
